US9913916B2, “Asymmetric bifunctional silyl monomers and particles thereof as prodrugs and delivery vehicles for pharmaceutical, chemical and biological agents” (The University of North Carolina at Chapel Hill, priority 2010, dated 2018)

Assay type: physicochemical
Method: A model degradation of an ABS pro-drug of gemcitabine attached via a di-isopropyl silyl ether linkage (iPr-GEM) was conducted.
Asymmetric bifunctional silyl ether pro-drugs were synthesized and analyzed as potential materials for controlled drug delivery in nanoparticles. Using one-step synthesis, numerous pro-drugs from the chemotherapeutics camptothecin, dasatinib, and gemcitabine were prepared. These ABS pro-drugs were placed under acidic conditions, such as those found […], and subsequent to degradation of the reversible covalent linkage(s), the pro-drug reverted back to the original active form of the chemotherapeutic. […] The rate of release increased as the steric bulk of the substituent on the Si atom decreased; Rate of Release: Et-GEM>iPr-GEM>>tBu-GEM). […] These ABS pro-drugs can be incorporated into nanoparticles and medical devices capable of releasing drugs in a controlled and tunable fashion.

For `C=CC(=O)OCCO[Si](CC)(CC)O[C@]1(CC)C(=O)OCc2c1cc1n(c2=O)Cc2cc3ccccc3nc2-1` [Et-CPT, Diethyl ABS of Camptothecin], the “degradation of silyl ether linkage on exposure to acid” value was “degraded to yield both unmodified camptothecin and HEA”.
For `C=CC(=O)OCCO[Si](OC[C@H]1O[C@@H](n2ccc(N)nc2=O)C(F)(F)[C@@H]1O)(C(C)C)C(C)C` [iPr-GEM, Diisopropyl ABS of Gemcitabine], the “degradation of silyl ether linkage on exposure to acid” value was “acid sensitive and reverts back to the original starting materials”.
